Experimental data published in patent publication US8741955B2, “D-serine transporter inhibitors as pharmaceutical compositions for the treatment of central nervous system disorders” (Allergan, Inc., priority 2011, dated 2014).

Assays:
[1] = test system: long-term potentiation (LTP) in the primary visual cortex; assay: long term potentiation in primary visual cortex slices; set-up: species or system rat
Method: Long Term Potentiation (LTP) in primary visual cortex has been used as a cellular model for visual cortex plasticity and has functional consequences on visual evoked responses. NMDA receptors play a critical role in visual cortex LTP induction.
Following decapitation of the rat, the brain was rapidly removed and immersed in ice-cold artificial cerebrospinal fluid (ACSF) containing 124 mM NaCl, 3 mM KCl, 1.25 mM KH2PO4, 3.4 mM CaCl2, 2.5 mM MgSO4, 26 mM NaHCO3, and 10 mM D-glucose. A block of visual cortex was created by removing the frontal ⅔ portion of the brain and the cerebellum. Coronal visual cortex slices of 375 μm were prepared from adult Sprague Dawley (SD) rats using a vibratome (VT 1000 S; Leica). The slices were maintained in an interface recording chamber perfused with preheated ACSF. Slices were continuously perfused with this solution at a rate of 1.00-1.50 ml/min while the surface of the slices was exposed to warm, humidified 95% O2/5% CO2 and maintained at 31±1° C. Visual cortex slices were allowed to recover for 1 hr before recording began. […] This was repeated 2 additional times with a 1 minute intertrain interval, and the level of LTP was recorded for at least 30 min. Changes in amplitude of the synaptic response were used to measure the extent of LTP because it was determined to be the more consistent parameter than the slope of the response. […]

[2] = test system: amphetamine-induced hyperlocomotion in mice; assay: amphetamine induced hyperactivity; format: in vivo; conditions: systemic administration, amphetamine 2 mg/kg s.c.
Method: C57B/6 male mice (n=5-10/group) were placed in an open field apparatus and their activity was measured for 30 minutes. At 30 minutes, they received a vehicle injection or injection of test compound followed by an injection of amphetamine (2 mg/kg, s.c.) at minute 45. Their activity levels were subsequently measured for another 1 hour post-injection. Total activity for each 5 minute bin (21 total bins) was added to establish the activity curve over the 105 minute testing.

[3] = biological target: T1, human ASCT2 (Homo sapiens, UniProt Q15758); assay: transport into HEK cells expressing ASCT2; format: cell-based
T1 construct: expressed in transfected cells; host or cells: HEK (human embryonic kidney) cells
T1 sequence (Q15758 1-541): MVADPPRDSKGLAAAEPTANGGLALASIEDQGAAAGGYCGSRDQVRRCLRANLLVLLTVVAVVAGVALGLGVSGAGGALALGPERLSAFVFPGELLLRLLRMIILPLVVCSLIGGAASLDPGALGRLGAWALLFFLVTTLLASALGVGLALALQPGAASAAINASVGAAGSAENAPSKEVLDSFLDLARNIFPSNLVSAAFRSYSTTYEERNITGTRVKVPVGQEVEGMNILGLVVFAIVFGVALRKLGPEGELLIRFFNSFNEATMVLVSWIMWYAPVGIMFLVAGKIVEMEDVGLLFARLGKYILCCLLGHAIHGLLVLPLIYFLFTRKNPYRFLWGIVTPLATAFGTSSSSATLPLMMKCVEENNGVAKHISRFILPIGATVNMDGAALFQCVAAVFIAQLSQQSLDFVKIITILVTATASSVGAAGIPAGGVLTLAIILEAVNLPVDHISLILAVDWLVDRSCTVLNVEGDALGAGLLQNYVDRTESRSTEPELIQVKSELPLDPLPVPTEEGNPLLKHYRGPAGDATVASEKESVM
Method: (§1) Cell-based assays: the transport of [^3H]L- or D-serine was measured in primary cultures of rat hippocampal astrocytes or in human embryonic kidney (HEK) cells expressing ASCT transporter sub-types. For the astrocyte assays, cells were plated on either 24- or 96-well plates at a density of 50,000 cells per well. For the HEK assays, cells were plated on coated 96-well plates at a density of 80,000 cells/well. Assays were conducted in duplicate at room temperature in assay buffer consisting of: NaCl: 150 mM, KCl: 2 mM; MgCl2: 1 mM; CaCl2: 1 mM; HEPES: Tris buffer: 10 mM, pH7.4. To assess the sodium-dependence of transport, NaCl was replaced in the assay buffer by equimolar choline chloride. Following aspiration of growth medium and 2 washes with assay buffer, cells were incubated with [^3H]L- or D-serine at a final concentration of 1 μM for 5 min (astrocytes) or 1 min (HEK cells), after which the incubation medium was aspirated and the cells washed twice with ice-cold assay buffer. Cells containing radiolabel were solubilized in 100 μl of 1% Triton-X100 and an aliquot counted in a beta counter. IC50 values were determined over a range of at least 6 concentrations and derived from curve-fitting algorithms available in GraphPad Prism 4.

[4] = test system: rat hippocampal astrocytes; assay: [3H]L-serine transport into astrocytes; format: cell-based
Method: as §1

[5] = test system: amphetamine-induced hyperlocomotion; conditions: systemic administration; Smith et al, 2009; cited from earlier work

## N[C@H](C(=O)O)c1ccc(O)cc1 [L-4-hydroxyphenylglycine]
[1]; 0.2 unit/ml DAAO
  effect on LTP with D-AAO in the perfusion medium: completely prevented
[1]; rat visual cortex slice
  effect on LTP evoked by theta burst stimulation in visual cortex slice: enhanced LTP in a concentration-dependent manner
[2]
  effect on amphetamine-induced hyperactivity/hyperlocomotion: reduced amphetamine-induced hyperactivity in a dose-dependent manner

## N[C@H](CO)C(=O)O [D-serine]
[3]
  inhibition of [3H]L-serine transport in ASCT2-expressing HEK cells: completely inhibited
[4]
  inhibition of [3H]L-serine transport in astrocytes: completely inhibited
[5]
  effect on amphetamine-induced hyperlocomotion (literature): reduce amphetamine-induced hyperlocomotion
